Patent US5470877A, “Uses of perillic acid methyl ester” (Wisconsin Alumni Research Foundation, priority 1994, dated 1995)

System: rat mammary carcinoma
Assay: Comparison of dietary perillyl alcohol and perillic acid methyl ester as inducers of rat mammary carcinoma regression
Format: in vivo, Wistar-Furth rat
Conditions: for no regression (tumors) / no response / partial regression >1/2 original diameter (%) / partial regression >1/2 original diameter (tumors) / small regression response / some growth of tumor: 6 weeks
Protocol: Inbred female Wistar-Furth rats were given 50 mg/kg DMBA at 50-55 days of age. Upon development of a mammary tumor with the largest diameter≥10 mm, the rat was assigned to 0.5% perillic acid methyl ester diet and fed ad libitum. The 0.5% perillic acid methyl ester diet (weight compound/weight ground Teklad rat/mouse 4% meal/chow) was prepared fresh every 7-10 days. Fresh diet was given to rats daily. All rats were weighed and palpated weekly. The study was terminated at 6 weeks after initial diet administration. The following tumor regression data was acquired:
We compared the effects of PAME and POH in terms of their ability to regress rat mammary carcinomas. Table 8 records our comparison. In summary, a 0.5% PAME diet was effective, while a 0.5% POH diet was only 10% effective. Diets of 2% POH were roughly 64-70% effective. While 2% POH is tolerated by a mammal, on a practical level PAME is preferred because a lower dose is sufficient.

[1] = 0.5% POH diet, first comparison
[2] = 1.0% POH diet, first comparison
[3] = 1.5% POH diet, first comparison
[4] = 2.0% POH diet, first comparison
[5] = 2.0% POH diet, second comparison

With `C=C(C)[C@@H]1CC=C(CO)CC1` [perillyl alcohol] the “no regression (tumors)” value [1] was 18/20, the no response [1] was 1/20 and the “partial regression >1/2 original diameter (%)” value [1] was 10%. The “partial regression >1/2 original diameter (tumors)” value [1] was 2/20, the small regression response [1] was 2/20 and the “some growth of tumor” value [1] was 15/20. For the same compound, the “no regression (tumors)” value [2] was 15/20, the no response [2] was 2/20 and the “partial regression >1/2 original diameter (%)” value [2] was 25%. For the same compound, the “partial regression >1/2 original diameter (tumors)” value [2] was 5/20, the small regression response [2] was 2/20 and the “some growth of tumor” value [2] was 11/20. For the same compound, the “no regression (tumors)” value [3] was 15/21, the no response [3] was 7/21 and the “partial regression >1/2 original diameter (%)” value [3] was 29%. The “partial regression >1/2 original diameter (tumors)” value [3] was 6/21, the small regression response [3] was 7/21 and the “some growth of tumor” value [3] was 4/21. For the same compound, the “no regression (tumors)” value [4] was 6/20, the no response [4] was 1/20 and the “partial regression >1/2 original diameter (%)” value [4] was 70%. The “partial regression >1/2 original diameter (tumors)” value [4] was 14/20, the small regression response [4] was 2/20 and the “some growth of tumor” value [4] was 3/20. For the same compound, the “no regression (tumors)” value [5] was 4/11, the no response [5] was 2/11 and the “partial regression >1/2 original diameter (%)” value [5] was 64%. The “partial regression >1/2 original diameter (tumors)” value [5] was 7/11, the small regression response [5] was 1/11 and the “some growth of tumor” value [5] was 1/11. The “effectiveness of diet (%)” value (2% POH diets) was 64-70%, the weight loss (rats fed PAME or POH diet) was “did experience weight loss” and the regression rate (rats fed a 1% diet) was 55%.
